Earlier results on 6 compounds are cited in patent US20080241273A1, “MASTIC GUM COMPOSITION FOR USE AS A DIETARY SUPPLEMENT IN HUMANS AND ANIMALS” (INTACT ENTERPRISES, INC., priority 2005, published 2008).

For data set [1] the following is noted: dogs.
The conditions of data set [2]: hydrochloric acid titrated to a pH between 6 and 7.
For data set [3] the following is noted: infusion, patients with lowered ionized magnesium.
For data set [4] the following is noted: 6 mg/kg daily orally for up to 60 days.
The conditions of data set [5]: type 1 and type 2 diabetes.
For data set [6] the following is noted: healthy individuals, oral.
For data set [7] the following is noted: oral, six weeks, daily dose of 15 mmol.

As for `C[C@H](O)C(=O)[O-].C[C@H](O)C(=O)[O-].O.O.[Mg+2]` [magnesium L-lactate dihydrate], the “bioavailability under decreased acidity” value in data set [1] is “did not impair”.
`[O]=[Mg]` [magnesium oxide]: in data set [2], the reprecipitation result is given as “did not occur”.
For `[Mg+2]` [magnesium], the “relief of acute migraine” value in data set [3] is “rapid and sustained relief”. In addition, the “serum concentrations of calcium, magnesium, parathyroid hormone, calcitriol, osteocalcin” value in data set [4] was “increased significantly”.
`O=S(=O)([O-])[O-].[O]=[V+2]` [vanadyl sulfate]: in data set [5], the blood sugar entry is recorded as “reduced” and the insulin sensitivity entry is “improved”.
For the compound magnesium citrate, the reprecipitation entry in data set [2] is given as “did not occur”. The “in vivo absorption (rise in urinary magnesium levels)” value in data set [6] was “absorbed to a much greater extent than the oxide”.
Regarding magnesium lactate citrate, the bioavailability result in data set [7] is “satisfactory”.
